Measured values published in PubChem BioAssay AID1963426 (Molecular Pharmacology Branch, DTP, NCI, 2024).
pIC50: −log10 of the molar value. Each block holds one compound with its values, some of them ahead of it.

Test system: 186277-243-T-J2-PDC complex spheroid growth, % test/control
Assay: Anticancer human tumor 186277-243-T-J2-PDC patient-derived colon adenocarcinoma cell line growth inhibition [Asc]
Settings: for pIC50: curve of first compound; for viability, T/C: stronger effect = lower value
Outline: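 Tumor cells were grown as complex spheroids with human endothelial cells (HUVEC) and human mesenchymal stem cells as stroma. Agents were tested alone and in combination, in half-log steps down from the clinical Cmax, or from 10 microM where Cmax was unknown.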

[1] = second compound 0.01 µM, first compound 0.0316 µM
[2] = second compound 0.01 µM, first compound 0.1 µM
[3] = second compound 0.01 µM, first compound 0.316 µM
[4] = second compound 0.01 µM, first compound 1 µM
[5] = second compound 0.01 µM, first compound 3.16 µM
[6] = second compound 0.01 µM, first compound 10 µM
[7] = second compound 0.0316 µM, first compound 0.0316 µM
[8] = second compound 0.0316 µM, first compound 0.1 µM
[9] = second compound 0.0316 µM, first compound 0.316 µM
[10] = second compound 0.0316 µM, first compound 1 µM
[11] = second compound 0.0316 µM, first compound 3.16 µM
[12] = second compound 0.0316 µM, first compound 10 µM
[13] = second compound 0.1 µM, first compound 0.0316 µM
[14] = second compound 0.1 µM, first compound 0.1 µM
[15] = second compound 0.1 µM, first compound 0.316 µM
[16] = second compound 0.1 µM, first compound 1 µM
[17] = second compound 0.1 µM, first compound 3.16 µM
[18] = second compound 0.1 µM, first compound 10 µM
[19] = second compound 0.316 µM, first compound 0.0316 µM
[20] = second compound 0.316 µM, first compound 0.1 µM
[21] = second compound 0.316 µM, first compound 0.316 µM
[22] = second compound 0.316 µM, first compound 1 µM
[23] = second compound 0.316 µM, first compound 3.16 µM
[24] = second compound 0.316 µM, first compound 10 µM
[25] = second compound 1 µM, first compound 0.0316 µM
[26] = second compound 1 µM, first compound 0.1 µM
[27] = second compound 1 µM, first compound 0.316 µM
[28] = second compound 1 µM, first compound 1 µM
[29] = second compound 1 µM, first compound 3.16 µM
[30] = second compound 1 µM, first compound 10 µM
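Note: spheroids exposed to agents for 7 days.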
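Throughout, for viability, T/C: 100% = DMSO vehicle control wells.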

Compound: C=C(F)C(=O)N1CCN(c2nc(OCC3CCCN3C)nc3c2CCN(c2cccc4cccc(Cl)c24)C3)CC1CC#N (stereo not given) + CNC(C)C(=O)NC1CN(S(=O)(=O)c2cccc(S(=O)(=O)N3CCC4CCC(C(=O)NC(c5ccccc5)c5ccccc5)N4C(=O)C(NC(=O)C(C)NC)C3)c2)CCC2CCC(C(=O)NC(c3ccccc3)c3ccccc3)N2C1=O
pIC50 (second compound 0.01 µM): 5.09
pIC50 (second compound 0.0316 µM): 5.14
pIC50 (second compound 0.1 µM): 5.18
pIC50 (second compound 0.316 µM): 5.16
pIC50 (second compound 1 µM): 5.20
viability, T/C [1]: 133%
viability, T/C [2]: 122%
viability, T/C [3]: 117%
viability, T/C [4]: 112%
viability, T/C [5]: 121%
viability, T/C [6]: 33.9%
viability, T/C [7]: 108%
viability, T/C [8]: 109%
viability, T/C [9]: 99.2%
viability, T/C [10]: 102%
viability, T/C [11]: 117%
viability, T/C [12]: 28.2%
viability, T/C [13]: 108%
viability, T/C [14]: 109%
viability, T/C [15]: 120%
viability, T/C [16]: 119%
viability, T/C [17]: 131%
viability, T/C [18]: 13.1%
viability, T/C [19]: 127%
viability, T/C [20]: 120%
viability, T/C [21]: 104%
viability, T/C [22]: 118%
viability, T/C [23]: 132%
viability, T/C [24]: 15.8%
viability, T/C [25]: 113%
viability, T/C [26]: 102%
viability, T/C [27]: 117%
viability, T/C [28]: 108%
viability, T/C [29]: 118%
viability, T/C [30]: 7.88%

Compound: C=CC(=O)N1CCN(c2nc(=O)n(-c3c(C)ccnc3C(C)C)c3nc(-c4c(O)cccc4F)c(F)cc23)C(C)C1 (stereo not given) + CNC(C)C(=O)NC1CN(S(=O)(=O)c2cccc(S(=O)(=O)N3CCC4CCC(C(=O)NC(c5ccccc5)c5ccccc5)N4C(=O)C(NC(=O)C(C)NC)C3)c2)CCC2CCC(C(=O)NC(c3ccccc3)c3ccccc3)N2C1=O
pIC50 (second compound 0.01 µM): < 5.00
pIC50 (second compound 0.0316 µM): < 5.00
pIC50 (second compound 0.1 µM): < 5.00
pIC50 (second compound 0.316 µM): < 5.00
pIC50 (second compound 1 µM): < 5.00
viability, T/C [1]: 102%
viability, T/C [2]: 114%
viability, T/C [3]: 117%
viability, T/C [4]: 100%
viability, T/C [5]: 112%
viability, T/C [6]: 104%
viability, T/C [7]: 118%
viability, T/C [8]: 104%
viability, T/C [9]: 122%
viability, T/C [10]: 116%
viability, T/C [11]: 100%
viability, T/C [12]: 108%
viability, T/C [13]: 124%
viability, T/C [14]: 108%
viability, T/C [15]: 124%
viability, T/C [16]: 114%
viability, T/C [17]: 122%
viability, T/C [18]: 113%
viability, T/C [19]: 124%
viability, T/C [20]: 118%
viability, T/C [21]: 120%
viability, T/C [22]: 130%
viability, T/C [23]: 112%
viability, T/C [24]: 110%
viability, T/C [25]: 112%
viability, T/C [26]: 124%
viability, T/C [27]: 109%
viability, T/C [28]: 106%
viability, T/C [29]: 127%
viability, T/C [30]: 118%

Compound: CCN1C(C(=O)NC23CCC(C(=O)O)(CC2)CC3)C(c2cccc(Cl)c2F)C2(C(=O)Nc3cc(Cl)ccc32)C12CCCCC2 (stereo not given) + CNC(C)C(=O)NC1CN(S(=O)(=O)c2cccc(S(=O)(=O)N3CCC4CCC(C(=O)NC(c5ccccc5)c5ccccc5)N4C(=O)C(NC(=O)C(C)NC)C3)c2)CCC2CCC(C(=O)NC(c3ccccc3)c3ccccc3)N2C1=O
pIC50 (second compound 0.01 µM): < 5.52
pIC50 (second compound 0.0316 µM): 5.57
pIC50 (second compound 0.1 µM): 5.55
pIC50 (second compound 0.316 µM): 5.57
pIC50 (second compound 1 µM): 5.62
viability, T/C (second compound 0.01 µM, first compound 0.00949 µM): 116%
viability, T/C (second compound 0.01 µM, first compound 0.03 µM): 147%
viability, T/C (second compound 0.01 µM, first compound 0.0949 µM): 155%
viability, T/C (second compound 0.01 µM, first compound 0.3 µM): 115%
viability, T/C (second compound 0.01 µM, first compound 0.949 µM): 76.7%
viability, T/C (second compound 0.01 µM, first compound 3 µM): 53.6%
viability, T/C (second compound 0.0316 µM, first compound 0.00949 µM): 112%
viability, T/C (second compound 0.0316 µM, first compound 0.03 µM): 141%
viability, T/C (second compound 0.0316 µM, first compound 0.0949 µM): 152%
viability, T/C (second compound 0.0316 µM, first compound 0.3 µM): 125%
viability, T/C (second compound 0.0316 µM, first compound 0.949 µM): 84.5%
viability, T/C (second compound 0.0316 µM, first compound 3 µM): 46.3%
viability, T/C (second compound 0.1 µM, first compound 0.00949 µM): 131%
viability, T/C (second compound 0.1 µM, first compound 0.03 µM): 143%
viability, T/C (second compound 0.1 µM, first compound 0.0949 µM): 147%
viability, T/C (second compound 0.1 µM, first compound 0.3 µM): 122%
viability, T/C (second compound 0.1 µM, first compound 0.949 µM): 76.5%
viability, T/C (second compound 0.1 µM, first compound 3 µM): 48.2%
viability, T/C (second compound 0.316 µM, first compound 0.00949 µM): 129%
viability, T/C (second compound 0.316 µM, first compound 0.03 µM): 149%
viability, T/C (second compound 0.316 µM, first compound 0.0949 µM): 149%
viability, T/C (second compound 0.316 µM, first compound 0.3 µM): 118%
viability, T/C (second compound 0.316 µM, first compound 0.949 µM): 75%
viability, T/C (second compound 0.316 µM, first compound 3 µM): 46.8%
viability, T/C (second compound 1 µM, first compound 0.00949 µM): 134%
viability, T/C (second compound 1 µM, first compound 0.03 µM): 132%
viability, T/C (second compound 1 µM, first compound 0.0949 µM): 159%
viability, T/C (second compound 1 µM, first compound 0.3 µM): 118%
viability, T/C (second compound 1 µM, first compound 0.949 µM): 74.9%
viability, T/C (second compound 1 µM, first compound 3 µM): 43.5%

Now from value to compound, other results behind:

pIC50 (second compound 0.01 µM): 6.24
pIC50 (second compound 0.0316 µM): 6.25
pIC50 (second compound 0.1 µM): 6.34
pIC50 (second compound 0.316 µM): 6.50
pIC50 (second compound 1 µM): 6.64
Compound: C#Cc1c(F)ccc2cc(O)cc(-c3ncc4c(N5CC6CCC(C5)N6)nc(OCC56CCCN5CC(F)C6)nc4c3F)c12 (stereo not given) + CNC(C)C(=O)NC1CN(S(=O)(=O)c2cccc(S(=O)(=O)N3CCC4CCC(C(=O)NC(c5ccccc5)c5ccccc5)N4C(=O)C(NC(=O)C(C)NC)C3)c2)CCC2CCC(C(=O)NC(c3ccccc3)c3ccccc3)N2C1=O
viability, T/C [1]: 110%
viability, T/C [2]: 110%
viability, T/C [3]: 68.6%
viability, T/C [4]: 31.6%
viability, T/C [5]: 18.1%
viability, T/C [6]: 10.9%
viability, T/C [7]: 119%
viability, T/C [8]: 98.4%
viability, T/C [9]: 72.2%
viability, T/C [10]: 27.7%
viability, T/C [11]: 16.8%
viability, T/C [12]: 9.61%
viability, T/C [13]: 111%
viability, T/C [14]: 99.9%
viability, T/C [15]: 61%
viability, T/C [16]: 24.6%
viability, T/C [17]: 13.2%
viability, T/C [18]: 8.58%
viability, T/C [19]: 128%
viability, T/C [20]: 90%
viability, T/C [21]: 53.2%
viability, T/C [22]: 18.4%
viability, T/C [23]: 10.1%
viability, T/C [24]: 8.04%
viability, T/C [25]: 123%
viability, T/C [26]: 91.4%
viability, T/C [27]: 34%
viability, T/C [28]: 11.7%
viability, T/C [29]: 8.66%
viability, T/C [30]: 6.64%

pIC50 (second compound 0.01 µM): 7.14
pIC50 (second compound 0.0316 µM): 7.01
pIC50 (second compound 0.1 µM): 7.09
pIC50 (second compound 0.316 µM): 7.06
pIC50 (second compound 1 µM): 7.07
Compound: COc1c(OCCCN2CCOCC2)ccc2c3n(c(=NC(=O)c4cnc(N)nc4)nc12)CCN3 + CNC(C)C(=O)NC1CN(S(=O)(=O)c2cccc(S(=O)(=O)N3CCC4CCC(C(=O)NC(c5ccccc5)c5ccccc5)N4C(=O)C(NC(=O)C(C)NC)C3)c2)CCC2CCC(C(=O)NC(c3ccccc3)c3ccccc3)N2C1=O
viability, T/C (second compound 0.01 µM, first compound 0.00316 µM): 98.5%
viability, T/C (second compound 0.01 µM, first compound 0.01 µM): 105%
viability, T/C [1]: 62.4%
viability, T/C [2]: 47.4%
viability, T/C [3]: 25.2%
viability, T/C [4]: 19.6%
viability, T/C (second compound 0.0316 µM, first compound 0.00316 µM): 99.3%
viability, T/C (second compound 0.0316 µM, first compound 0.01 µM): 128%
viability, T/C [7]: 77.7%
viability, T/C [8]: 54.3%
viability, T/C [9]: 24.9%
viability, T/C [10]: 19.1%
viability, T/C (second compound 0.1 µM, first compound 0.00316 µM): 114%
viability, T/C (second compound 0.1 µM, first compound 0.01 µM): 120%
viability, T/C [13]: 68.3%
viability, T/C [14]: 50.9%
viability, T/C [15]: 25.1%
viability, T/C [16]: 18.1%
viability, T/C (second compound 0.316 µM, first compound 0.00316 µM): 108%
viability, T/C (second compound 0.316 µM, first compound 0.01 µM): 113%
viability, T/C [19]: 74.9%
viability, T/C [20]: 48.5%
viability, T/C [21]: 25.6%
viability, T/C [22]: 18.5%
viability, T/C (second compound 1 µM, first compound 0.00316 µM): 108%
viability, T/C (second compound 1 µM, first compound 0.01 µM): 104%
viability, T/C [25]: 75.2%
viability, T/C [26]: 48.2%
viability, T/C [27]: 21.3%
viability, T/C [28]: 17.7%
